# According to the CombiSolv-Exp solvation set (Vermeire and Green 2021):
# Experiment: solvent given as SMILES
# [1] = in CCCCCCCC(=O)OCC(COC(=O)CCCCCCC)OC(=O)CCCCCCC
compound,measurement,setting,value
CC1=CCC2C(C)=CCC(C(C)C)C2C1 (centres undefined),"solvation free energy, 298 K",in O,-0.38 kcal/mol
C#C,"solvation free energy, 298 K",in C1COCCO1,-1.71 kcal/mol
same,"solvation free energy, 298 K",in CC(C)=O,-1.83 kcal/mol
same,"solvation free energy, 298 K",in CC(C)CC(C)(C)C,-0.37 kcal/mol
same,"solvation free energy, 298 K",in CCCCCC,-0.52 kcal/mol
same,"solvation free energy, 298 K",in CCCCO,-0.82 kcal/mol
same,"solvation free energy, 298 K",in CN(C)C=O,-1.75 kcal/mol
same,"solvation free energy, 298 K",in CO,-1.42 kcal/mol
same,"solvation free energy, 298 K",in COC(C)=O,-1.76 kcal/mol
same,"solvation free energy, 298 K",in Cc1ccc(C)cc1,-0.8 kcal/mol
same,"solvation free energy, 298 K",in ClC(Cl)(Cl)Cl,-0.65 kcal/mol
same,"solvation free energy, 298 K",in O,0 kcal/mol
FC(F)(F)CCl,"solvation free energy, 298 K",[1],-2.41 kcal/mol
same,"solvation free energy, 298 K",in O,0.06 kcal/mol
FC(F)(F)Cl,"solvation free energy, 298 K",in CCCCCCC,-0.6 kcal/mol
same,"solvation free energy, 298 K",in CCCCCCCC,-0.53 kcal/mol
same,"solvation free energy, 298 K",[1],-0.03 kcal/mol
same,"solvation free energy, 298 K",in CCCCCCCCC,-0.46 kcal/mol
same,"solvation free energy, 298 K",in CCCCCCCCO,-0.06 kcal/mol
same,"solvation free energy, 298 K",in CN1CCCC1=O,0.23 kcal/mol
same,"solvation free energy, 298 K",in CN(C)C=O,0.08 kcal/mol
same,"solvation free energy, 298 K",in ClC(Cl)(Cl)Cl,-0.6 kcal/mol
same,"solvation free energy, 298 K",in O,2.31 kcal/mol
CCOP(=S)(OCC)Oc1ccc([N+](=O)[O-])cc1,"solvation free energy, 298 K",in O,-6.74 kcal/mol
FC(Cl)C(F)(F)F (centres undefined),"solvation free energy, 298 K",in CCCCCCCCO,-1.67 kcal/mol
same,"solvation free energy, 298 K",in CN1CCCC1=O,-2.39 kcal/mol
same,"solvation free energy, 298 K",in CN(C)C=O,-2.44 kcal/mol
same,"solvation free energy, 298 K",in O,0.79 kcal/mol
C=CC(C)(CCC=C(C)C)OC=O (centres undefined),"solvation free energy, 298 K",in O,-3.6 kcal/mol
CC(C)N(N=O)C(C)C,"solvation free energy, 298 K",in CC(C)CC(C)(C)C,-6.07 kcal/mol
same,"solvation free energy, 298 K",in O,-5.16 kcal/mol
FC(F)(Cl)Cl,"solvation free energy, 298 K",in CCCCCCC,-1.8 kcal/mol
same,"solvation free energy, 298 K",in CCCCCCCC,-1.76 kcal/mol
same,"solvation free energy, 298 K",[1],-1.36 kcal/mol
same,"solvation free energy, 298 K",in CCCCCCCCC,-1.68 kcal/mol
same,"solvation free energy, 298 K",in CCCCCCCCO,-1.34 kcal/mol
same,"solvation free energy, 298 K",in ClC(Cl)(Cl)Cl,-1.92 kcal/mol
Nc1ccc(S(=O)(=O)Nc2ccccn2)cc1,"solvation free energy, 298 K",in O,-18.7 kcal/mol
CC(C(=O)O)c1ccc2c(c1)[nH]c1ccc(Cl)cc12 (centres undefined),"solvation free energy, 298 K",in O,-15.1 kcal/mol
ClCCOCCCl,"solvation free energy, 298 K",in O,-4.23 kcal/mol
Clc1ccccn1,"solvation free energy, 298 K",in O,-4.39 kcal/mol
COC(=O)C(F)(F)F,"solvation free energy, 298 K",in O,-1.1 kcal/mol
Clc1cc2c(cc1Cl)Oc1c(Cl)c(Cl)c(Cl)c(Cl)c1O2,"solvation free energy, 298 K",in O,-3.71 kcal/mol
CC(C)C(C)C(C)C,"solvation free energy, 298 K",in Brc1ccccc1,-4.64 kcal/mol
same,"solvation free energy, 298 K",in C1CCCCC1,-5.1 kcal/mol
same,"solvation free energy, 298 K",in C1CCOC1,-4.92 kcal/mol
same,"solvation free energy, 298 K",in C1COCCO1,-4.17 kcal/mol
same,"solvation free energy, 298 K",in C=CCCCC,-5 kcal/mol
same,"solvation free energy, 298 K",in C=CCCCCCC,-4.92 kcal/mol
same,"solvation free energy, 298 K",in C=CCCCCCCCC,-4.84 kcal/mol
same,"solvation free energy, 298 K",in CC1COC(=O)O1,-2.86 kcal/mol
same,"solvation free energy, 298 K",in CC#N,-3.46 kcal/mol
same,"solvation free energy, 298 K",in CC(=O)N(C)C,-3.7 kcal/mol
same,"solvation free energy, 298 K",in CC(=O)O,-3.77 kcal/mol
same,"solvation free energy, 298 K",in CC(=O)c1ccccc1,-3.96 kcal/mol
same,"solvation free energy, 298 K",in CC(C)=O,-4.14 kcal/mol
same,"solvation free energy, 298 K",in CC(C)CC(C)(C)C,-4.9 kcal/mol
same,"solvation free energy, 298 K",in CC(C)CCCC(C)CCCC(C)CCCCC(C)CCCC(C)CCCC(C)C,-4.48 kcal/mol
same,"solvation free energy, 298 K",in CC(C)CCO,-4.31 kcal/mol
same,"solvation free energy, 298 K",in CC(C)O,-4.09 kcal/mol
same,"solvation free energy, 298 K",in CC(C)OC(C)C,-4.9 kcal/mol
same,"solvation free energy, 298 K",in CCBr,-5.01 kcal/mol
same,"solvation free energy, 298 K",in CCC#N,-3.86 kcal/mol
same,"solvation free energy, 298 K",in CCC(C)=O,-4.39 kcal/mol
same,"solvation free energy, 298 K",in CCCC#N,-4.14 kcal/mol
same,"solvation free energy, 298 K",in CCCC(=O)OCC,-4.61 kcal/mol
same,"solvation free energy, 298 K",in CCCC(C)=O,-4.49 kcal/mol
same,"solvation free energy, 298 K",in CCCCC,-5.05 kcal/mol
same,"solvation free energy, 298 K",in CCCCCC,-5.03 kcal/mol
same,"solvation free energy, 298 K",in CCCCCC(C)=O,-4.51 kcal/mol
same,"solvation free energy, 298 K",in CCCCCCC,-4.98 kcal/mol
same,"solvation free energy, 298 K",in CCCCCCCC,-4.91 kcal/mol
same,"solvation free energy, 298 K",in CCCCCCCCC,-4.87 kcal/mol
same,"solvation free energy, 298 K",in CCCCCCCCCC,-4.84 kcal/mol
same,"solvation free energy, 298 K",in CCCCCCCCCCCC,-4.74 kcal/mol
same,"solvation free energy, 298 K",in CCCCCCCCCCCCCCCC,-4.66 kcal/mol
same,"solvation free energy, 298 K",in CCCCCCCCO,-4.33 kcal/mol
same,"solvation free energy, 298 K",in CCCCCCOC(C)=O,-4.59 kcal/mol
same,"solvation free energy, 298 K",in CCCCO,-4.23 kcal/mol
same,"solvation free energy, 298 K",in CCCCOC(C)=O,-4.56 kcal/mol
same,"solvation free energy, 298 K",in CCCCOCCCC,-4.88 kcal/mol
same,"solvation free energy, 298 K",in CCCO,-4.1 kcal/mol
same,"solvation free energy, 298 K",in CCN(CC)CC,-4.98 kcal/mol
same,"solvation free energy, 298 K",in CCO,-4.02 kcal/mol
same,"solvation free energy, 298 K",in CCOC(C)=O,-4.41 kcal/mol
same,"solvation free energy, 298 K",in CCOCC,-4.96 kcal/mol
same,"solvation free energy, 298 K",in CCOCCOCCOCC,-4.33 kcal/mol
same,"solvation free energy, 298 K",in CCOc1ccccc1,-4.42 kcal/mol
same,"solvation free energy, 298 K",in CN1CCCC1=O,-3.6 kcal/mol
same,"solvation free energy, 298 K",in CN(C)C=O,-3.53 kcal/mol
same,"solvation free energy, 298 K",in CN(C)P(=O)(N(C)C)N(C)C,-3.97 kcal/mol
same,"solvation free energy, 298 K",in CNC=O,-3.19 kcal/mol
same,"solvation free energy, 298 K",in CO,-3.64 kcal/mol
same,"solvation free energy, 298 K",in COC(C)=O,-4.22 kcal/mol
same,"solvation free energy, 298 K",in COCCO,-3.52 kcal/mol
same,"solvation free energy, 298 K",in COc1ccccc1,-4.35 kcal/mol
same,"solvation free energy, 298 K",in CS(C)=O,-2.63 kcal/mol
same,"solvation free energy, 298 K",in Cc1ccc(C)cc1,-4.85 kcal/mol
same,"solvation free energy, 298 K",in Cc1ccccc1,-4.85 kcal/mol
same,"solvation free energy, 298 K",in Cc1ccccn1,-4.45 kcal/mol
same,"solvation free energy, 298 K",in ClC(Cl)(Cl)Cl,-5.09 kcal/mol
same,"solvation free energy, 298 K",in ClC(Cl)Cl,-4.98 kcal/mol
same,"solvation free energy, 298 K",in ClCCCl,-4.4 kcal/mol
same,"solvation free energy, 298 K",in ClCCl,-4.74 kcal/mol
same,"solvation free energy, 298 K",in Clc1ccccc1,-4.84 kcal/mol
same,"solvation free energy, 298 K",in FC(F)(F)C(F)(F)C(F)(F)C(F)(F)C(F)(F)C(F)(F)C(F)(F)C(F)(F)F,-3.34 kcal/mol
same,"solvation free energy, 298 K",in FC(F)(F)C(F)(F)C(F)(F)C(F)(F)C(F)(F)C(F)(F)F,-3.4 kcal/mol
same,"solvation free energy, 298 K",in Fc1ccccc1,-4.75 kcal/mol
same,"solvation free energy, 298 K",in ICI,-2.94 kcal/mol
same,"solvation free energy, 298 K",in N#Cc1ccccc1,-4.01 kcal/mol
same,"solvation free energy, 298 K",in Nc1ccccc1,-3.27 kcal/mol
same,"solvation free energy, 298 K",in O,2.57 kcal/mol
same,"solvation free energy, 298 K",in O=C1CCCCC1,-4.32 kcal/mol
same,"solvation free energy, 298 K",in O=C1CCCO1,-3.01 kcal/mol
same,"solvation free energy, 298 K",in OCc1ccccc1,-3.52 kcal/mol
same,"solvation free energy, 298 K",in S=C=S,-5.06 kcal/mol
same,"solvation free energy, 298 K",in c1ccccc1,-4.83 kcal/mol
same,"solvation free energy, 298 K",in c1ccncc1,-4.17 kcal/mol
C=C(CCC=C(C)C)C1CC=C(C)CC1 (centres undefined),"solvation free energy, 298 K",in O,-0.5 kcal/mol
